The source of these data is patent publication US20140243292A1, “SUBSITUTED 2-(CHROMAN-6-YLOXYL)-THIAZOLES AND THEIR USE AS PHARMACEUTICALS” (Sanofi, priority 2011, published 2014).

Usually pIC50 stands for the negative decadic logarithm of the IC50, by convention in mol/L.

pIC50: −log10 of the molar value. Structures can show the parent of a compound that is named as a salt.

Experiment [1] has as its target T1, human NCX1 (Homo sapiens, UniProt P32418).
T1 construct: expressed in transfected cells
Kind of experiment: NCX1 inhibition, forward mode (Ca2+ efflux out of cells), FLIPR calcium assay. Conditions: CHO cells stably expressing human NCX1, read-out: NCX1fw IC50. The class given is cell-based. From the text: The sodium/calcium exchanger NCX1 can transport calcium ions and sodium ions through the cell membrane. The transport is an exchange of Ca^2+ and Na^+ in two directions depending on membrane potential and ion gradients. At the first direction, named “forward mode” or “calcium export mode”, Ca^2+ is transported out of the cell and Na^+ is transported into the cell. At the other direction, named “reverse mode” or “calcium import mode”, the transport directions are vice versa. The effect of the compounds of the invention on NCX1 was determined in CHO cells stably expressing human NCX1 (gene symbol SLC8A1; cf. WO 2009/115238). The assay is based on the monitoring of intracellular Ca^2+ concentrations using a calcium-sensitive fluorescence dye which is detected by means of a FLIPR device (Fluorimetric Imaging Plate Reader, Molecular Devices).
The assay is based on the monitoring of intracellular Ca^2+ concentrations using the PBX Calcium Assay Kit from BD (Becton, Dickinson and Company) with calcium indicator dye 51-9000177BKa (BD, 640177). CHO cells expressing NCX1 were loaded with the dye, and after a preincubation period with the test compound, Ionomycin (Calbiochem, 407950) was added. Ionomycin is an ionophor for Ca^2+ ions mediating an increase of intracellular Ca^2+ ions. Consequently, intracellular Ca^2+ ions are exchanged against extracellular Na^+ ions (Ca^2+ efflux, forward mode). The decrease of intracellular Ca^2+ ions was detected by measuring the fluorescence of the calcium indicator dye at a wavelength of 520 nm by a FLIPR device.
Briefly, similarly as for the reverse mode, for the forward mode transport assay 18000 cells per well were seeded into a 96 well microplate (Corning COSTAR 3904) and incubated overnight in culture medium (cf. above). A total volume of 100 μl medium per well was used. For the preparation of the FLIPR assay, the culture medium was removed from the plates and 100 μl of assay buffer (133.8 mM NaCl (Sigma, S5886); 4.7 mM KCl (Sigma, P3911); 1.25 mM MgCl2 (Merck, 1.05833.0250); 3.5 mM CaCl2(Merck, 1.02083.0250); 5 mM glucose (Sigma, G7021); 10 mM Hepes (Sigma, H4034); pH 7.4)) were added to each well in a washing step. Assay buffer was removed, and 100 μl of a solution of the test compound in assay buffer in different concentrations were added into the wells. Further, 100 μl of dye solution (0.09% (v/v) calcium indicator dye, 9.1% (v/v) signal enhancer (from PBX Calcium Assay Kit); in assay buffer) were added into each well. The plates were incubated in the dark at room temperature for 60 min. Meanwhile a 10 μM solution of Ionomycin in assay buffer (additionally containing 0.05% fetal calf serum (cf. above); 4° C.) was prepared and stored in the wells of a 96 well microplate (96 well microplate, polypropylene, U-shape (Greiner Bio-One, 650201)). The fluorescence monitoring was performed at 60 measuring points with measurement intervals of 2 sec. After the fifth measuring point, 50 μl of the Ionomycin solution were added to each well of the assay plate to give a final Ionomycin concentration of 2 μM. For the determination of the IC50 values the minimal fluorescence value was subtracted from the maximal fluorescence value for the fifteenth to fifty-fifth measuring points. The calculation of the IC50 values via the percentage inhibitions of Ca^2+ efflux out of cells (forward mode) effected by the test compound was performed in Biost@t Speed 2.0. “NCX1fw IC50” in Table 2 means the IC50 value for inhibition of NCX1 in forward mode (in μM (micromol/liter)).

Experiment [2] has as its target T1, human NCX1. The experiment in a line: NCX1 inhibition, reverse mode (Ca2+ influx into cells), FLIPR Fluo-4 assay. The experiment is classed as cell-based. Conditions: inhibition of NCX1 in reverse mode (Ca2+ influx into cells); read-out: NCX1rv IC50. The method, boiled down:
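Max−min Fluo-4 fluorescence (520 nm, FLIPR, 240 points at 2 s) after 20 µM final gramicidin, which drives Na+ loading and reverse-mode Ca2+ entry, gave % inhibition and IC50. Test compound was preincubated 45 min at 16 °C with Fluo-4-loaded CHO cells stably expressing human NCX1, in pH 7.4 buffer containing 3.5 mM CaCl2 and probenecid.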

The subject of another experiment is Sprague-Dawley rats. Kind of experiment: In vivo method for determining the effect on heart contractility (left ventricular dp/dtmax). Conditions: Rattus norvegicus, iv, read-out: Contractility increase (%). As to the method: Adult male Sprague-Dawley rats (Harlan Winkelmann, Borchen, Germany) weighing 340 to 370 g were anesthetized with pentobarbital (100 mg/kg i.p.) and ventilated with a mixture of oxygen (40%) and room air (60%) at a tidal volume of 1 ml/100 g at 60 breaths/min. Body temperature was maintained at 36.5±0.3° C. with a heating lamp and was monitored with a rectal thermo sensor. Systemic blood pressure was measured in the left carotid artery using a pressure transducer (Combitrans; B. Braun Melsungen AG, Melsungen, Germany) connected to a DC-bridge-amplifier (PLUGSYS/ADC Type 663; Harvard Apparatus GmbH, March-Hugstetten, Germany). The electrocardiogram was measured as lead II via subcutaneously placed electrodes connected to a Heart-Rate-Module ([…] Type 669; Harvard Apparatus GmbH, March-Hugstetten, Germany). A micro-tip catheter (2 French, SPR-320; Millar Instruments, Houston, Tex., USA) was placed via the right carotid artery into the left ventricle, and the left ventricular pressure (LVP) and the enddiastolic pressure (EDP) were continuously measured. Registration of the hemodynamic data was performed via an analog digital converter by a personal computer using Notocord software (HEM version 3.5). Left ventricular contractility (dp/dtmax) and relaxation (dp/dtmin) were calculated from the LVP signal. For intravenous administration of the test compounds, the left jugular vein was prepared and a PP-50 catheter was inserted. Test compounds were administered either by intravenous bolus injection or by intravenous infusion by means of an infusion pump (Unita; B. Braun Melsungen AG, Melsungen, Germany). […] In a typical experiment, several dosages of the test compound were administered subsequently at increasing doses. Statistical significance of the data obtained with drug vs. control experiments, in which solvent was administered, was evaluated with the 2-sided ANOVA test (program Everstat). Increases in left ventricular contractility (percent increase) by example compounds are given in Table 3 in comparison to control experiments in which solvent was administered.

Consider `Cc1ccccc1C1CCc2cc(Oc3ncc(C(=O)NCCN4CCNC4=O)s3)ccc2O1` (stereo not drawn) [Example 216, 2-(2-o-Tolyl-chroman-6-yloxy)-thiazole-5-carboxylic acid [2-(2-oxo-imidazolidin-1-yl)-ethyl]-amide], for which the values for the pIC50 at human NCX1 [1] and on human NCX1 [2] were 5.72 and 6.52, respectively.

In the case of `O=C(NCc1nnc2n1CCC2)c1cnc(Oc2ccc3c(c2)CCC(c2cccc(F)c2)O3)s1` (stereo not drawn) [Example 20, hydrochloride], the negative logarithm of the IC50 (pIC50) is 5.92 on human NCX1 [1] and 6.70 on human NCX1 [2].

`O=C(NCc1ccncc1)c1sc(Oc2ccc3c(c2)CCC(c2ccccc2)O3)nc1Cl` (stereo not drawn) [Example 177, 4-Chloro-2-(2-phenyl-chroman-6-yloxy)-thiazole-5-carboxylic acid (pyridin-4-ylmethyl)-amide hydrochloride]: the pIC50 on human NCX1 [1] is 6.10; at human NCX1 [2], 6.52.

Take `O=C(NC1C2CNCC21)c1cnc(Oc2ccc3c(c2)CC[C@@H](c2ccccc2)O3)s1` (stereo partly drawn) [Example 255]: the figures for the pIC50 at human NCX1 [1] and at human NCX1 [2] were 6.22 and 6.52, respectively.

`Cc1ccccc1[C@@H]1CCc2cc(Oc3ncc(C(=O)NCCOP(=O)(O)O)s3)ccc2O1` [Example 345, Phosphoric acid mono-(2-{[2-((S)-2-o-tolyl-chroman-6-yloxy)-thiazole-5-carbonyl]-amino}-ethyl) ester disodium salt]: at human NCX1 [1], the pIC50 was 5.52. For the same compound, in the experiment on Sprague-Dawley rats, the change in vivo at 0.03 mg/kg/min is 32% and the change in vivo at 0.1 mg/kg/min amounted to 85%. In addition, the pIC50 on human NCX1 [2] is 7.15.
